From ChEMBL document CHEMBL4616727, “Characterization of Conformationally Constrained Benzanilide Scaffolds for Potent and Selective HDAC8 Targeting” (J Med Chem, 2020)

Legend:
[1] = MRT in CD1 mouse at 100 mg/kg, ip measured after 5 mins to 12 hrs by LC-MS/MS analysis; type: ADME, organism-based; details: in vivo
[2] = Effective permeability at pH 7.4 by PAMPA method; type: ADME
[3] = Effective permeability assessed as drug recovery at pH 7.4 by PAMPA method; type: ADME; details: read-out: Drug recovery
[4] = Cmax in CD1 mouse at 100 mg/kg, ip measured after 5 mins to 12 hrs by LC-MS/MS analysis; type: ADME, organism-based; set-up: dose 100 mg/kg, route intraperitoneal; details: in vivo
[5] = AUClast in CD1 mouse at 100 mg/kg, ip measured after 5 mins to 12 hrs by LC-MS/MS analysis; type: ADME, organism-based; set-up: time upper 12 hr, time lower 0.083 hr, dose 100 mg/kg, route intraperitoneal; details: in vivo
[6] = Half life in CD1 mouse at 100 mg/kg, ip measured after 5 mins to 12 hrs by LC-MS/MS analysis; type: ADME, organism-based; details: in vivo
[7] = target: T1, Polyamine deacetylase HDAC10 (Homo sapiens, UniProt Q969S8); test: Inhibition of N-terminal His-tagged full length human HDAC10 expressed in baculovirus expression system using FAM-TSRHK(Ac)KL-NH2 substrate incubated for 17 hrs by EMSA method
T1 sequence (Q969S8 whole entry): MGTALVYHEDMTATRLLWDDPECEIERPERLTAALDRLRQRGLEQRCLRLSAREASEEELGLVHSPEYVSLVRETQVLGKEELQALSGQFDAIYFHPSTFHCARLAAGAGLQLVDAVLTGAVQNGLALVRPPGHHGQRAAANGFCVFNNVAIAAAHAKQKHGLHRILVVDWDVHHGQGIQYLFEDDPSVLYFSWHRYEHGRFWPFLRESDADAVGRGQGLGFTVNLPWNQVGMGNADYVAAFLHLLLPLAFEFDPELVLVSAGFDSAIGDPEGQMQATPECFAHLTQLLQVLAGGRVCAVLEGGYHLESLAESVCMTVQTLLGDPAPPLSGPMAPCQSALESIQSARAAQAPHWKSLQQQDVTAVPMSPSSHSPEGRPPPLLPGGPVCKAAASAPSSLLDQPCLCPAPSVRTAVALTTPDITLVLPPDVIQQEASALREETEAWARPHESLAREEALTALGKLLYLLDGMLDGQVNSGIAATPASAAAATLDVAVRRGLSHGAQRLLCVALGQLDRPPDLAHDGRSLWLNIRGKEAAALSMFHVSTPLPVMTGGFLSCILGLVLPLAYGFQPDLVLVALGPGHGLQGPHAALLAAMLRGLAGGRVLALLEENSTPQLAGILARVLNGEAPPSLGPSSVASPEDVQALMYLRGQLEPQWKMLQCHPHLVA

Histone deacetylase 5 = Histone deacetylase 5 (Homo sapiens, UniProt Q9UQL6); test: Inhibition of N-terminal GST-tagged full length human HDAC5 expressed in baculovirus expression system using FAM-RHKK(TF-Ac)-NH2 substrate incubated for 2 hrs by EMSA method
Histone deacetylase 4 = Histone deacetylase 4 (Homo sapiens, UniProt P56524); test: Inhibition of C-terminal GST-tagged human HDAC4 (101 to 1084 resides) expressed in baculovirus expression system using FAM-RHKK(TF-Ac)-NH2 substrate incubated for […] by EMSA method
Histone deacetylase 7 = target: T2, Histone deacetylase 7 (Homo sapiens, UniProt Q8WUI4); test: Inhibition of N-terminal GST-tagged human HDAC7 (518 to end residues) expressed in baculovirus expression system using FAM-RHKK(TF-Ac)-NH2 substrate incubated for 3 hrs by EMSA method
T2 sequence (Q8WUI4 whole entry): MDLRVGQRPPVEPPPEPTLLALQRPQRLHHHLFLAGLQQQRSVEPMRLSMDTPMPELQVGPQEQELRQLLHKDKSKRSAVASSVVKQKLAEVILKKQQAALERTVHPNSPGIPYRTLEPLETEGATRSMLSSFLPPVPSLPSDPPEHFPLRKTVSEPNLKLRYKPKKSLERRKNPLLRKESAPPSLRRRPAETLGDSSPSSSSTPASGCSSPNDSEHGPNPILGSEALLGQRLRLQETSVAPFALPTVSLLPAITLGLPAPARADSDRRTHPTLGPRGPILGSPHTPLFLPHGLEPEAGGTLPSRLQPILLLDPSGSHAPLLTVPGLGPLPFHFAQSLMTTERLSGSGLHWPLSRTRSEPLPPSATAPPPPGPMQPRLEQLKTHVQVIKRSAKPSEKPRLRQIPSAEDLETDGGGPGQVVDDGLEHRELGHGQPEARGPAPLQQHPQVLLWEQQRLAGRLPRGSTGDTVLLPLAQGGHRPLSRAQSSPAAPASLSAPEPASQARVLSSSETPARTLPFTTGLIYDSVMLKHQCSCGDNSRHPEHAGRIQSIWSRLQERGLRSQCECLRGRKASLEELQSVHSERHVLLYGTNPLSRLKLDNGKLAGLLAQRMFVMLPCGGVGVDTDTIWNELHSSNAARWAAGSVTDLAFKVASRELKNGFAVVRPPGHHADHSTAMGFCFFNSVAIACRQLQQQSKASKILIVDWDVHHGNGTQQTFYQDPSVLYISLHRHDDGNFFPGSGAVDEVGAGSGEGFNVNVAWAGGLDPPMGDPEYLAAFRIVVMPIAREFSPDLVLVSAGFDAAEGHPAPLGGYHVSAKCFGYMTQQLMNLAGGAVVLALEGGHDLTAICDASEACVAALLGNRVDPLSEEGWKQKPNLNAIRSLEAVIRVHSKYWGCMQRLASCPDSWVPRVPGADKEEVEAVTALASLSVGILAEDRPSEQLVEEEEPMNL

Histone deacetylase 9 = Histone deacetylase 9 (Homo sapiens, UniProt Q9UKV0); test: Inhibition of C-terminal His-tagged human HDAC9 (604 to 1066residues) expressed in baculovirus expression system using […] substrate incubated for 3 hrs by EMSA method
BE(2)-C = test: Inhibition of colony formation in human BE(2)-C cells

Histone deacetylase 9, sequence (Q9UKV0 whole entry): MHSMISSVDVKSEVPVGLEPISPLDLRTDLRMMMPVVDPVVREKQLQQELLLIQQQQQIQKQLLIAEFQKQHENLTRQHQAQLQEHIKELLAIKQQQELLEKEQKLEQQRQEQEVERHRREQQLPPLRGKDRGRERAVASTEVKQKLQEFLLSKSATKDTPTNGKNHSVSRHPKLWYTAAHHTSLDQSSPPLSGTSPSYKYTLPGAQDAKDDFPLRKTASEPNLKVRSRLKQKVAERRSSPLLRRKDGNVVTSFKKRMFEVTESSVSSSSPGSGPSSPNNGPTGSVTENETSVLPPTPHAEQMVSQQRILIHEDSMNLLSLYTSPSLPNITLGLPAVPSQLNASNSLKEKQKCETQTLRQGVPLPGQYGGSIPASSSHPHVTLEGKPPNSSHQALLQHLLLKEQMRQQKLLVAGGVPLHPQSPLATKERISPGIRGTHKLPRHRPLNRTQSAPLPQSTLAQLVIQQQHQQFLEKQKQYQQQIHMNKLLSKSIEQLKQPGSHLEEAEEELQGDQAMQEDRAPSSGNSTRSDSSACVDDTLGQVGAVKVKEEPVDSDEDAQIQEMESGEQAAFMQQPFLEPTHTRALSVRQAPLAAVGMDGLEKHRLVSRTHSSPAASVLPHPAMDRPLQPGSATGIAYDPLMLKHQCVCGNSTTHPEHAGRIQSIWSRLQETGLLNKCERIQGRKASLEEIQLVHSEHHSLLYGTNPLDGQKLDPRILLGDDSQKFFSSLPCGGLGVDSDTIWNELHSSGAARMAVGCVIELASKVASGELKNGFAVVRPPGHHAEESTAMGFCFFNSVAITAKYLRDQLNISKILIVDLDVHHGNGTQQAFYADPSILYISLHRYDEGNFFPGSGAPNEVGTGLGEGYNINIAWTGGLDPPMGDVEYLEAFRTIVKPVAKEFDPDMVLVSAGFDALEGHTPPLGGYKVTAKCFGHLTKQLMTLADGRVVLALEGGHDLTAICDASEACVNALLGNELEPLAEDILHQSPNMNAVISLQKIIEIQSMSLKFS
Histone deacetylase 5, sequence (Q9UQL6 whole entry): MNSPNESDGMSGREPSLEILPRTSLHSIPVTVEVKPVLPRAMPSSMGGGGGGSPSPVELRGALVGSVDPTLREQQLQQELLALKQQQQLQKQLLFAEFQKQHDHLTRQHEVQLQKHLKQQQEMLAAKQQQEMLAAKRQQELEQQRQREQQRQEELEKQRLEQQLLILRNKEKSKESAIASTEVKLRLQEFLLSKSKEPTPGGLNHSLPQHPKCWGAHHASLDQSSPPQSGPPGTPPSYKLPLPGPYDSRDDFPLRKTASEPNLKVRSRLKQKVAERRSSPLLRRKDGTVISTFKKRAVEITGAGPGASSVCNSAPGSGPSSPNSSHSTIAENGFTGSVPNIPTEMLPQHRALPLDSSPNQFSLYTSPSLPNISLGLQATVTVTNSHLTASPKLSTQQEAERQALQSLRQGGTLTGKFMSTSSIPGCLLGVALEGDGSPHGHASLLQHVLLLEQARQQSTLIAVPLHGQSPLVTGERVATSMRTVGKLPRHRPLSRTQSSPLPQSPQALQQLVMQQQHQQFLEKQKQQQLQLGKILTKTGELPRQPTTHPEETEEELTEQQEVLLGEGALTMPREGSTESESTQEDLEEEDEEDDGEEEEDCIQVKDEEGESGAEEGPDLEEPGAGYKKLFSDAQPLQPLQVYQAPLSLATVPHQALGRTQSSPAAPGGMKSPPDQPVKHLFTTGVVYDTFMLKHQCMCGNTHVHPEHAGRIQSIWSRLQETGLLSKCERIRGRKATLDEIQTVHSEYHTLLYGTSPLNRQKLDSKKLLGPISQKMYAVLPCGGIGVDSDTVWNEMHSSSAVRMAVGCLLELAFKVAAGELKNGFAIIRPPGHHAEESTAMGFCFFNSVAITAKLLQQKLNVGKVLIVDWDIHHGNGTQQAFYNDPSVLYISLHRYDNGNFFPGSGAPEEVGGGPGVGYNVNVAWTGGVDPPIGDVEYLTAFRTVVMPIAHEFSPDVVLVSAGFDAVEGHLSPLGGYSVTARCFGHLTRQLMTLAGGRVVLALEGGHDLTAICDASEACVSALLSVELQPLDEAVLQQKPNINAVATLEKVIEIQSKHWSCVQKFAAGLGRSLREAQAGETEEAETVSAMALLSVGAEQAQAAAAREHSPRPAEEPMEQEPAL
Histone deacetylase 4, sequence (P56524 whole entry): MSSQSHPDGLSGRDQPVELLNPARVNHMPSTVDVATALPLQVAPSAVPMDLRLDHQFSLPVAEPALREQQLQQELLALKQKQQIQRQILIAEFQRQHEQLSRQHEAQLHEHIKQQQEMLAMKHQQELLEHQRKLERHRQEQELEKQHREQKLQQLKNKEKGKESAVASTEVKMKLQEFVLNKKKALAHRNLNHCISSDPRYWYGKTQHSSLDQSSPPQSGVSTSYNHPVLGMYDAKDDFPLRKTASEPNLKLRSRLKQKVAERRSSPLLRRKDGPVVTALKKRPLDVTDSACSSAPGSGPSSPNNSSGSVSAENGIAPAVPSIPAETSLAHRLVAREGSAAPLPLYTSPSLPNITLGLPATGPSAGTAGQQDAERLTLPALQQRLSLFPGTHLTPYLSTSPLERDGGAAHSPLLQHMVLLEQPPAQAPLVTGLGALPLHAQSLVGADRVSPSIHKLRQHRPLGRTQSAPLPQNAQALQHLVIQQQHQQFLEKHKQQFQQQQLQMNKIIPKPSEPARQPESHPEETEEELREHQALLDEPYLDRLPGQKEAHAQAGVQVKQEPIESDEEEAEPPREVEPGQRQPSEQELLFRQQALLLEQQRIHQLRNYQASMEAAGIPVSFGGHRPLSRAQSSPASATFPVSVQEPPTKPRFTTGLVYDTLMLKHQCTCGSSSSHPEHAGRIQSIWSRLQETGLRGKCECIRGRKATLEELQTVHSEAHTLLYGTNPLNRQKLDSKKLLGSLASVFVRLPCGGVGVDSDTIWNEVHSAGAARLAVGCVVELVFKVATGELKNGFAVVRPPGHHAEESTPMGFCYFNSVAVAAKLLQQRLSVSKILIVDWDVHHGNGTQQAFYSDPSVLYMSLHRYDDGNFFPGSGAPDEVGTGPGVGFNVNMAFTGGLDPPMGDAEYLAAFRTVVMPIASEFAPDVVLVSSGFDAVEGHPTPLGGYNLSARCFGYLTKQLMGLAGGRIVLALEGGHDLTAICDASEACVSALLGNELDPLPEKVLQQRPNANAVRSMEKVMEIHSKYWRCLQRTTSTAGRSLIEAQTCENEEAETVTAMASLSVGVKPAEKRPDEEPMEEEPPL

MRT [1] [h]	log(permeability) [2]	recovery [3] [%]	Cmax [4] [µM]	AUC(0-t) [5] [ng·h/mL]	half-life [6] [h]	IC50 [7] [µM]	IC50 (Histone deacetylase 5) [µM]	IC50 (Histone deacetylase 4) [µM]	IC50 (Histone deacetylase 7) [µM]	IC50 (Histone deacetylase 9) [µM]	IC50 (BE(2)-C) [µM]	Structure (SMILES)
3	-5.8	102	–	–	–	–	–	–	–	–	–	CC(C)N(C(=O)c1cccc(OC(F)(F)F)c1)c1ccc(C(=O)NO)cc1
0.45	–	–	57.6	6950	3.3	–	–	–	–	–	–	COc1ccc(Cn2ccc3ccc(C(=O)NO)cc32)cc1
–	-5.42	95.4	–	–	–	> 10	> 10	> 10	> 10	> 10	–	CC(C)N(C(=O)c1cc(C(F)(F)F)cc(C(F)(F)F)c1)c1ccc(C(=O)NO)cc1
2.77	-5.7	102	–	–	–	–	–	–	–	–	2.1	CC(C)(C)c1cccc(C(=O)N(CC2CC2)c2ccc(C(=O)NO)cc2)c1
